Article PMC3789958, “A Bacterial Glucanotransferase Can Replace the Complex Maltose Metabolism Required for Starch to Sucrose Conversion in Leaves at Night*” (The Journal of Biological Chemistry, 2013)

T1: MalQ (Escherichia coli, UniProt P15977)
T1 construct: recombinant in E. coli, His-tagged, IMAC purified; biotinylated or amine-coupled for SPR
T1 sequence (P15977 1-694): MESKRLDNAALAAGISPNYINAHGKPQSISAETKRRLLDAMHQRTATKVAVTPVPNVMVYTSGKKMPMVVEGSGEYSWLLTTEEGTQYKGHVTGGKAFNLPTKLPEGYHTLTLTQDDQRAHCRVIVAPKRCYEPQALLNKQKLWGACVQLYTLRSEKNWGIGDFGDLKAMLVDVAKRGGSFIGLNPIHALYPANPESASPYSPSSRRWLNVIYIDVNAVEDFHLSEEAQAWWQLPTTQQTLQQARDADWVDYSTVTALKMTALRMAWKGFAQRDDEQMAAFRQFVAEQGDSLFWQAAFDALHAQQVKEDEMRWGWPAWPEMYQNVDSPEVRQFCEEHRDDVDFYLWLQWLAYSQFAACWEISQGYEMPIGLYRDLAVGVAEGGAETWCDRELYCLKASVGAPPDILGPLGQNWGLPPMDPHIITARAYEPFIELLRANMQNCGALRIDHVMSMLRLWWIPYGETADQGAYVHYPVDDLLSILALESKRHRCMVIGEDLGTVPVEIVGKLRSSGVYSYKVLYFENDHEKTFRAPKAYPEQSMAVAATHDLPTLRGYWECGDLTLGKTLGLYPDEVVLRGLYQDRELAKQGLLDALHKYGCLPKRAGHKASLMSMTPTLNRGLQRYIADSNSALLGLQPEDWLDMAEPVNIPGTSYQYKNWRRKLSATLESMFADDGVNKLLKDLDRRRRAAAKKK

T2: DPE2 (Arabidopsis thaliana, UniProt Q8RXD9)
T2 construct: recombinant in E. coli Rosetta II, pET151, N-terminal His6 tag removed with TEV protease; homodimer; biotinylated for SPR
T2 sequence (Q8RXD9 1-955): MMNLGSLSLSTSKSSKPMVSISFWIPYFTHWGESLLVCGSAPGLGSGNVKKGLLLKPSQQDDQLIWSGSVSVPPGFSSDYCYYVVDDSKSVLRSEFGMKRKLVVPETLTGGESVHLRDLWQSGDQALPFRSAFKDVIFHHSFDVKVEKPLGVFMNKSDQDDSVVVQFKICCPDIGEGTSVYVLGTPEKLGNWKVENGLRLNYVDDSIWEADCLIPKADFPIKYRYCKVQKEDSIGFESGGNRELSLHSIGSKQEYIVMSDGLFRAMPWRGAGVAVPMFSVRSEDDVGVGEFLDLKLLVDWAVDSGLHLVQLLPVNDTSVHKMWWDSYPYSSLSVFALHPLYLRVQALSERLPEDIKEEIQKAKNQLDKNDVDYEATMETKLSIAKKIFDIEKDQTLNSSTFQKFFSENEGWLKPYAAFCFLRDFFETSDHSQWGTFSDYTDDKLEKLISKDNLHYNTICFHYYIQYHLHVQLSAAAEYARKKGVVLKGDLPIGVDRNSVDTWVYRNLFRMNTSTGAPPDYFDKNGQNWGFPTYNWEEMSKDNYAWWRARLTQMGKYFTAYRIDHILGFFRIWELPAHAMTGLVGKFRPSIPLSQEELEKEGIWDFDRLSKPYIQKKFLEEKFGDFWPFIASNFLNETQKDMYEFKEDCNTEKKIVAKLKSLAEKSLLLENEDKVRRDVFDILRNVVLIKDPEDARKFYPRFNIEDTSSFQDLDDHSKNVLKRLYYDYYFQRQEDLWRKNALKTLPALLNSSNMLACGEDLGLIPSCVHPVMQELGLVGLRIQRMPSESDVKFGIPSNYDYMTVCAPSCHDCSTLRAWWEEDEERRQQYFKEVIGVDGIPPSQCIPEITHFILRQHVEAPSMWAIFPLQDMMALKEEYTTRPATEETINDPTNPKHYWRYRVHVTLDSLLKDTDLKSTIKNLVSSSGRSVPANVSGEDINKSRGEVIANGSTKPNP

B1: DPE2 (4-alpha-glucanotransferase, disproportionating enzyme 2) from Arabidopsis, recombinant (enzyme, Arabidopsis thaliana, UniProt Q8RXD9 1-955, looked up)
chain: T2 sequence (Q8RXD9 1-955)
notes: DPE2, cytosolic 4-alpha-glucanotransferase of Arabidopsis thaliana, At2g40840; also called native DPE2; recombinant DPE2; source: E. coli Rosetta II, purified (nickel IMAC, TEV protease treatment, second IMAC, Superdex S-200); not shown: His6, N-terminal, cleaved

Key:
[1] = target: T1, MalQ; experiment: SPR, steady-state affinity fit, MalQ amine-coupled to CM5 chip; format: binding; details: 10 mM HEPES pH 7.0, 25 °C; read-out: dissociation constant
[2] = target: T2, DPE2; experiment: SPR, steady-state affinity fit, biotinylated protein on streptavidin chip; format: binding; details: 10 mM HEPES pH 7.0, 25 °C
[3] = target: T1, MalQ; experiment: coupled hexokinase / glucose-6-phosphate dehydrogenase assay, Hanes plot; format: biochemical; details: maltose as donor, Glc7 as acceptor; two separate preparations; pH 7.9, 1 mM MgCl2
[4] = target: T2, DPE2; experiment: as above; format: biochemical; details: maltose as donor, glycogen as acceptor; two separate preparations; pH 7.9, 1 mM MgCl2
[5] = target: T1, MalQ; experiment: SPR, steady-state affinity fit, biotinylated protein on streptavidin chip; format: binding; details: 10 mM HEPES pH 7.0, 25 °C
[6] = target: the molecule itself; experiment: SEC; Superdex S-200 16/60 in 25 mM HEPES (pH 7.5), 50 mM NaCl; purified DPE2 after His tag cleavage; elution compared with molecular mass markers

Molecule | dissociation constant [2] | dissociation constant [5] | other results
OC[C@H]1O[C@H](O[C@H]2[C@H](O)[C@@H](O)[C@@H](O[C@H]3[C@H](O)[C@@H](O)[C@@H](O[C@H]4[C@H](O)[C@@H](O)C(O)O[C@@H]4CO)O[C@@H]3CO)O[C@@H]2CO)[C@H](O)[C@@H](O)[C@@H]1O (stereo partly drawn) [Glc4] | bound malto-oligosaccharides Glc5, Glc6, and Glc7 more strongly than Glc4 | – | Kd [1]: 410 nM
OC[C@H]1O[C@H](O[C@H]2[C@H](O)[C@@H](O)C(O)O[C@@H]2CO)[C@H](O)[C@@H](O)[C@@H]1O (stereo partly drawn) [maltose] | – | – | Km [3]: 2.1 and 1.9 mM; Km [4]: 2.9 and 2.3 mM
OC[C@H]1O[C@H](O[C@H]2[C@H](O)[C@@H](O)[C@@H](O[C@H]3[C@H](O)[C@@H](O)[C@@H](O[C@H]4[C@H](O)[C@@H](O)[C@@H](O[C@H]5[C@H](O)[C@@H](O)[C@@H](O[C@H]6[C@H](O)[C@@H](O)C(O)O[C@@H]6CO)O[C@@H]5CO)O[C@@H]4CO)O[C@@H]3CO)O[C@@H]2CO)[C@H](O)[C@@H](O)[C@@H]1O (stereo partly drawn) [Glc6] | bound malto-oligosaccharides Glc5, Glc6, and Glc7 more strongly than Glc4 | progressively lower affinities for Glc5, Glc6, and Glc7 | –
OC[C@H]1O[C@H](O[C@H]2[C@H](O)[C@@H](O)[C@@H](O[C@H]3[C@H](O)[C@@H](O)[C@@H](O[C@H]4[C@H](O)[C@@H](O)[C@@H](O[C@H]5[C@H](O)[C@@H](O)[C@@H](O[C@H]6[C@H](O)[C@@H](O)[C@@H](O[C@H]7[C@H](O)[C@@H](O)C(O)O[C@@H]7CO)O[C@@H]6CO)O[C@@H]5CO)O[C@@H]4CO)O[C@@H]3CO)O[C@@H]2CO)[C@H](O)[C@@H](O)[C@@H]1O (stereo partly drawn) [Glc7] | bound malto-oligosaccharides Glc5, Glc6, and Glc7 more strongly than Glc4 | progressively lower affinities for Glc5, Glc6, and Glc7 | –
OC[C@H]1O[C@H](O[C@H]2[C@H](O)[C@@H](O)[C@@H](O[C@H]3[C@H](O)[C@@H](O)[C@@H](O[C@H]4[C@H](O)[C@@H](O)[C@@H](O[C@H]5[C@H](O)[C@@H](O)C(O)O[C@@H]5CO)O[C@@H]4CO)O[C@@H]3CO)O[C@@H]2CO)[C@H](O)[C@@H](O)[C@@H]1O (stereo partly drawn) [Glc5] | bound malto-oligosaccharides Glc5, Glc6, and Glc7 more strongly than Glc4 | progressively lower affinities for Glc5, Glc6, and Glc7 | –
OC[C@H]1O[C@H](O[C@H]2[C@H](O)[C@@H](O)[C@@H](O[C@H]3[C@H](O)[C@@H](O)C(O)O[C@@H]3CO)O[C@@H]2CO)[C@H](O)[C@@H](O)[C@@H]1O (stereo partly drawn) [Glc3] | – | – | Kd [1]: 260 nM
B1 | – | – | stoichiometry N [6]: 2
